# What was measured:
# E0771 tumors [1] = experiment: E0771 tumor growth analysis in C57BL/6 mice treated with DDA; assay type: in vivo, mouse; settings: 0.37 μg/kg or 20 mg/kg DDA IP every 5 days
# Procedure: FIGS. 4A-C. Tumor growth analysis (A) Exponentially growing E0771 cells were collected, washed twice in PBS and resuspended in PBS (300,000 cells in 100 μl PBS). E0771 tumors were prepared by subcutaneous transplantation into the flanks of C57BL/6 mice. When tumor measured 50 mm3, the mice were treated every 5 days with 0.37 μg/kg or 20 mg/kg DDA or with the solvent vehicle (control).
# [2] = system: naive CD4 T cells from the spleen of WT or LXRαβKO mice; experiment: Polarization of naive CD4 T cells from WT or LXRαβKO mice in presence of DDA; assay type: cell-based, mouse
# Procedure: FIGS. 9A-B. Sorted naive CD4 T cells were isolated from the spleen of WT or LXRαβKO mice (collaboration with Hervé Guillou, INRA, Toulouse) and activated in the indicated Th1 or Treg polarizing conditions. These cells were cultured in the presence of increasing concentrations of DDA. After 96 hours, the percentage of (A) Th1: CD4+Tbet+IFNg+ and (B) Treg: CD4+Foxp3+IL10+ cells was measured by flow cytometry and expressed relative to the control.
# FIG. 10. Sorted naive CD4 T cells were isolated from the spleen of WT or LXRαβKO mice and activated in Th2 polarizing conditions. These cells were cultured in the presence of increasing concentrations of DDA. After 96 hours, the percentage of Th2: CD4+GATA3+IL4+ cells was measured by flow cytometry and expressed relative to the control.
# [3] = system: naive CD8 T cells isolated from the spleen of the C57BL/6 mice; experiment: Activation of naive CD8 T cells (anti-CD3, anti-CD28, IL2) in presence of DDA, flow cytometry; assay type: cell-based, mouse
# Procedure: FIGS. 1A-E. Sorted naive CD4 T cells were isolated from the spleen of C57BL/6 mice and activated in the indicated Th1, Th2, Treg, or Th17 polarizing conditions as described in the “Materials and methods” section”. These cells were cultured in the presence of increasing concentrations of DDA. After 96 hours, the percentage of (A) Th1: CD4+Tbet+IFNg+, (B) Th2: CD4+GATA3+[…], (C) Treg: CD4+Foxp3+IL10+ and (D) Th17: CD4+RORgt+[…], cells was measured by flow cytometry. (E) Sorted naive CD8 T cells were isolated from the spleen of the C57BL/6 mice and activated with anti-CD3, anti-CD28 and recombinant IL2. After 96 hours, the percentage of cytotoxic T CD8+GranzymB+IFNg+ cells was measured by flow cytometry.
# FIGS. 2A-E. Sorted naive CD4 T cells isolated from the spleen of C57BL/6 mice were activated in Th1, Th2, Treg, or Th17 polarizing conditions as indicated in the “Materials and methods” section”. After 96 h, increasing concentrations of DDA was added on polarized CD4 T cells for 24 h. Then the percentage of (A) CD4+Tbet+IFNg+, (B) CD4+GATA3+[…], (C) CD4+Foxp3+IL10+ and (D) CD4+RORgt+[…] cells was measured by flow cytometry. (E) Sorted naïve CD8 T cells were isolated from the spleen of the C57BL/6 mice and activated with anti-CD3, anti-CD28 and recombinant IL2. After 96 h, increasing concentrations of DDA was added on activated CD8 T cells for 24 h. Then the percentage of cytotoxic T CD8+GranzymB+IFNg+ cells was measured by flow cytometry.
# Cells isolation. Single-cells leukocyte suspensions were obtained from spleens of C57BL/6 mice. Naive CD4 or CD8 T cells are isolated by depletion of memory CD4 or CD8 T cells and non-CD4 or non-CD8 T cells according the manufacturer's protocol from Miltenyi kit (Miltenyi biotec). […]
# Immune cell culture. […] After 5 days of culture, cells were collected and analyzed by flow cytometry. To investigate the impact of DDA on polarization of CD4 or CD8 naive T cells, DDA or the solvent vehicle was added at the beginning of culture at Day 0 or at Day 4 and cells was analyzed at day 5 by flow cytometry.
# E0771 tumors [4] = experiment: Immune cells infiltrated into E0771 tumors (wild type, sh control, sh LXR) after DDA, flow cytometry; assay type: in vivo, mouse
structure (smiles),measurement,setting,value
"CC(C)CCCC(C)[C@H]1CCC2C3C[C@@H](NCCc4cnc[nH]4)[C@@]4(O)C[C@@H](O)CC[C@]4(C)C3CC[C@@]21C (stereo partly drawn) [DDA, 5a-hydroxy-6b-[2-(1H-imidazol-4-yl)ethylamino]cholestan-3b-ol]",mice survival,E0771 tumors [1],increases mice survival
same,tumor growth,E0771 tumors [1],inhibits tumor growth
same,DDA effect on Th1 differentiation,[2]; LXRαβKO mice,abrogated
same,DDA effect on Treg differentiation,[2]; LXRαβKO mice,abrogated
same,differentiation of Th0 into Th1,"[2]; WT mice, Th1 polarizing conditions, 96 h (FIG. 9)",increases
same,differentiation of Th0 into Treg,"[2]; WT mice, Treg polarizing conditions, 96 h (FIG. 9)",decreases
same,Th2 differentiation,"[2]; WT or LXRαβKO mice, Th2 polarizing conditions, 96 h (FIG. 10)",no impact
same,concentration from which differentiation of naïve CD8 T cells into functional cytotoxic CD8 T cells is increased,"[3]; DDA added at day 0, 96 h, CD8+GranzymB+IFNg+",≥ 10 nM
same,concentration from which differentiation of naïve CD8 T cells into functional cytotoxic CD8 T cells is increased,[3]; DDA added at day 4 for 24 h,≥ 1 nM
same,CD8 T cells phenotype,[3]; data not shown,no significant effect
same,number of macrophages M2 infiltrated into the tumors,E0771 tumors [4]; 0.37 μg/kg DDA (FIG. 18),decreases
same,number of MDSC infiltrated into the tumor,E0771 tumors [4]; 0.37 μg/kg DDA (FIG. 19),decreases
same,ratio of dendritic cells CD11+ CD8α+ versus MDSC,E0771 tumors [4]; 0.37 μg/kg DDA (FIG. 19),increases
same,LXRβ dependence of effect on macrophages M1,E0771 tumors [4]; shLXRβ vs LXRβ expressing tumors (FIG. 18),dependent of the LXRβ
same,effects on MDSC and dendritic cells/MDSC ratio,E0771 tumors [4]; tumors knocked-down for the LXRβ (FIG. 19),abolished
